According to patent US9969796B2, “Peptides and binding partners therefor” (priority 2013, dated 2018):

System: Drosophila melanogaster
Assay: Drosophila melanogaster (fruit fly) injection model
Assay type: in vivo
Details: 250 μg/ml; for flies recovering after 24 hours: 24 hours post-injection; for signs of paralysis in injected flies: cohort of 20 age-matched flies
Method: FIG. 17 is a graph showing the results of an experiment to show Drosophila killing by Ece1-III. The percentage of Drosophila death, 24 hours post-infection of 250 μg/ml His-tagged full length Ece1p, Ece1-II (peptide 2) (FIG. 2), and Ece1-III (peptide 3), into a cohort of 20 age-matched flies.
The applicants also determined the effect of administering full length His-tagged Ece1p and Ece1-III in a Drosophila melanogaster (fruit fly) model.

Molecule	flies recovering after 24 hours	signs of paralysis in injected flies
CC[C@H](C)[C@H](NC(=O)CNC(=O)[C@H](CCSC)NC(=O)[C@@H](NC(=O)[C@@H](NC(=O)CNC(=O)[C@@H](NC(=O)[C@@H](NC(=O)[C@@H](N)CO)[C@@H](C)CC)[C@@H](C)CC)[C@@H](C)CC)[C@@H](C)CC)C(=O)N[C@@H](CC(C)C)C(=O)NCC(=O)N[C@@H](CC(N)=O)C(=O)N[C@H](C(=O)N1CCC[C@H]1C(=O)N[C@@H](CCC(N)=O)C(=O)N[C@H](C(=O)N[C@H](C(=O)N[C@@H](CCC(N)=O)C(=O)N[C@H](C(=O)N[C@H](C(=O)N[C@@H](CCSC)C(=O)N[C@@H](CO)C(=O)N[C@H](C(=O)N[C@H](C(=O)N[C@@H](CCCCN)C(=O)N[C@@H](C)C(=O)N[C@@H](Cc1ccccc1)C(=O)N[C@@H](CCCCN)C(=O)NCC(=O)N[C@@H](CC(N)=O)C(=O)N[C@@H](CCCCN)C(=O)N[C@@H](CCCNC(=N)N)C(=O)O)C(C)C)[C@@H](C)CC)[C@@H](C)CC)[C@@H](C)CC)[C@@H](C)CC)C(C)C)[C@@H](C)CC [Ece1-III]	10%	displayed signs of paralysis
full length His-tagged Ece1p: His-tagged full length Ece1 protein of C. albicans	17.5%	displayed signs of paralysis
CC[C@H](C)[C@H](NC(=O)[C@H](C)NC(=O)[C@@H](NC(=O)[C@H](CC(N)=O)NC(=O)[C@H](Cc1ccccc1)NC(=O)[C@H](CCC(=O)O)NC(=O)[C@H](CCC(N)=O)NC(=O)[C@@H]1CCCN1C(=O)[C@H](C)NC(=O)[C@@H]1CCCN1C(=O)[C@@H](NC(=O)[C@@H](NC(=O)[C@@H]1CCCN1C(=O)[C@H](C)NC(=O)[C@H](CCC(N)=O)NC(=O)[C@H](CC(=O)O)NC(=O)[C@H](C)NC(=O)[C@@H]1CCCN1C(=O)[C@H](C)NC(=O)[C@H](C)NC(=O)[C@@H]1CCCN1C(=O)[C@H](C)NC(=O)[C@H](C)NC(=O)[C@@H]1CCCN1C(=O)[C@H](C)NC(=O)[C@@H](NC(=O)[C@@H](N)CC(=O)O)C(C)C)[C@@H](C)O)C(C)C)[C@@H](C)O)C(=O)N[C@H](C(=O)N[C@@H](CCCCN)C(=O)N[C@@H](CCCNC(=N)N)C(=O)O)[C@@H](C)O [Ece1-II]	–	no signs of paralysis
